Reference: PMC4691232 (Chemistry & Biology, 2015)
“Also recorded” adds a separate entry of the source.

Experiments:
WcbL [1] = molecular target: T1, WcbL (Burkholderia pseudomallei, UniProt H7C745); test: biochemical
WcbL [2] = molecular target: T1, WcbL; test: biochemical; format: binding

T1 sequence (H7C745 1-346): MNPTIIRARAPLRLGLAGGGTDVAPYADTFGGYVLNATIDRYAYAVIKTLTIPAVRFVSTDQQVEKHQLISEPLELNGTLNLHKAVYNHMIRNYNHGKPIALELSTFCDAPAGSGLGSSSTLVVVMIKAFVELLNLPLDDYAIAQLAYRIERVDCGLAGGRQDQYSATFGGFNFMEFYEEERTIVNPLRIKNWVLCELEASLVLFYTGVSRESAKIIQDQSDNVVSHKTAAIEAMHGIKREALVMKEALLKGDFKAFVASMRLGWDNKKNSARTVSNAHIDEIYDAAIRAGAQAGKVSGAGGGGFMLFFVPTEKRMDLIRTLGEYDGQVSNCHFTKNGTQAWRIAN

SMILES | Ki (WcbL [1]) | activity against WcbL (structure-activity relationship study, in words) (WcbL [1]) | Kd (WcbL [2]) | cooperativity coefficient n (DSF binding) (WcbL [2])
N#Cc1coc2ccccc2c1=O [3-cyanochromone] | 10 ± 6 µM | – | – | –
N#Cc1coc2c(Cl)cc(Cl)cc2c1=O [6,8-dichloro-3-cyanochromone] | – | significantly weaker activity; also recorded: far less potent inhibitor | – | –
N#Cc1coc2ccc(Br)cc2c1=O [6-bromo-3-cyanochromone] | 12 ± 5 µM | very similar to those of the original compound | – | –
Nc1ncnc2c1ncn2[C@@H]1OC(COP(=O)(O)OP(=O)(O)OP(=O)(O)O)[C@@H](O)[C@H]1O (stereo partly shown) [ATP] | – | – | 33 ± 7 µM | 0.6 ± 0.06
O=P(O)(O)OCC(O)C1OC(O)C(O)C(O)C1O [M7P, D-manno-α,β-D-heptose-7-phosphate] | – | – | 968 ± 37 µM | did not show any cooperativity
O=Cc1coc2ccccc2c1=O [chromone-3-carboxaldehyde] | – | significantly weaker activity; also recorded: much weaker IC50 | – | –
O=c1ccoc2ccccc12 [chromone] | – | significantly weaker activity; also recorded: does not inhibit WcbL | – | –
